Assay results reported in patent publication US4288609A, “Quaternary ammonium derivatives of adamantane with antimicrobic activity” (priority 1976, dated 1981).
Like-named read-outs stand apart in the source and are kept apart here.

How the values were obtained:
Candida Albic. SKF 2270 = assay: MIC yeasts, Candida albicans (Table 2); assay type: cell-based; conditions: for MIC: Candida, Sabourand broth, read-out: MIC; for activity on Candida albicans, times greater than that of cetyl pyridine chloride: in the absence of serum; for activity on Candida albicans, times higher than that of cetyl pyridine chloride: in the presence of 10% of horse serum
Experimental: (§1) The method for evaluating the activity in vitro against bacteria, fungi and protozoa consists in introducing calculated quantities of the substance, the activity of which it is desired to test, into culture media already inoculated with a predetermined number of test germs.
(§2) After 24 or 48 hours of incubation at 30° or 37° C., according to the micro-organism being tested, it is possible to evaluate the growth of the same in the culture broth; in this manner the minimum concentration (M.I.C.) which inhibits the growth of the micro-organisms in vitro is determined.
Inoculation with Candida albicans or Candida pseudotropicalis was made by diluting cultures grown for 24 h at 30° C. (cellular density inoculated 10^3 /ml).
(§3) For the fungi Sabourand broth was used as a culture medium, whilst for the protozoa Kupferberg Trichomonas broth with 5% of horse serum was used.

Proteus Vulc. ATCC 881 = assay: M.I.C. in vitro, gram- Proteus Vulc. (Table 1); assay type: cell-based; conditions: read-out: M.I.C.
Experimental: as §1, §2
(§4) In table 1 there are recorded the M.I.C. values in γ/ml of the products subject of the present invention, against certain gram+ and gram- bacterial strains, some of which are pathogenic towards human beings.

[1] = system: gram+ and gram- bacterial strains; assay: Activity in vitro on gram+ and gram- bacteria, overall; assay type: cell-based; conditions: gram positive and gram negative strains, low concentrations
Experimental: as §1, §2, §4

Esch. Coli. SKF 12140 = assay: M.I.C. in vitro, gram- Esch. Coli (Table 1); assay type: cell-based, Escherichia Coli; conditions: Escherichia coli, read-out: M.I.C.
Experimental: as §1, §2, §4

Pseudom.Aer. ATCC 1014 = assay: M.I.C. in vitro, gram- Pseudom. Aer. (Table 1); assay type: cell-based, Pseudomonas Aeruginosa; conditions: Pseudomonas aeruginosa, read-out: M.I.C.
Experimental: as §1, §2, §4

Diplococcus Pneum. ISM = assay: M.I.C. in vitro, gram+ Diplococcus Pneum. (Table 1); assay type: cell-based; conditions: read-out: M.I.C.
Experimental: as §1, §2, §4

Pseudomonas Aeruginosa = assay: Antibacterial activity in vivo with topical treatment (Table 5); design: species or system female CF1 albino mice; conditions: for animals alive on the 15th day / animals dead on the 15th day: 10 animals; for % survivors: topical, 15th day; for efficacy in vivo (in words): other concentrations considered
Experimental: After their backs have been shaved, female CF1 albino mice weighing 18-22 g are scorched (under ether anaesthetic) for 15 seconds with a pad of brass previously immersed in boiling water (7-8% of the body surface). After 90 minutes there is applied to the scorched area 0.1 ml of a suspension of Pseudomonas Aeruginosa bacteria having 15% transmittance at 650 nm. The bacterial strain in question produces a high incidence of mortality, induced by septicemic diffusion from the point of infection. After 90 minutes, with the aid of a glass rod suitably flattened at one end, the preparation containing a known concentration of the compound under examination is applied locally. The treatment is continued for a total of six days (once per day). On the fifteenth day the percentage of survivors to the tested doses in recorded.
The carrier used for applying the compounds under examination is an aqueous 0.75% solution of carboxymethyl-cellulose. The concentrations of the compounds tested are 2, 1, 0.5 and 0.25% by weight.

[2] = system: Trichophyton Mentagrophytes Ist. Pasteur; assay: Speed of sterilising action, Trichophyton Mentagrophytes (Table 3); assay type: cell-based
Experimental: (§5) The strains, inoculants, culture broths and experimental methods are as already seen for calculating the M.I.C. in vitro. The antimicrobic substances were tested at concentrations of 0.1, 0.25, 0.5 and 1 g/l, the contact times taken into consideration are 0, 1, 2.5, 5, 7.5, 10, 15, 30 and 60 minutes.
(§6) The samples which at the 7th day of incubation still had no growth of micro-organisms which could be observed macroscopically and/or microscopically were considered sterile.
(§7) The results are recorded in Table 3 in terms of sterilization time expressed in minutes.

[3] = system: Trych. Mentagr. 1st.Pastuer; assay: MIC mildews, Trichophyton mentagrophytes (Table 2); assay type: cell-based; conditions: Trichophyton mentagrophytes, Sabourand broth, read-out: MIC
Experimental: as §1, §2
Inoculation with Trichophyton mentagrophytes and Microsporum canis was effected in a ratio of 1% of the volume of medium used.
as §3

Klens. Pneum. ISM = assay: M.I.C. in vitro, gram- Klens. Pneum. (Table 1); assay type: cell-based; conditions: read-out: M.I.C.
Experimental: as §1, §2, §4

[4] = system: Candida Albicans SKF 2270; assay: Speed of sterilising action, Candida Albicans (Table 3); assay type: cell-based
Experimental: as §5, §6, §7

Trich. Foetus ISM 66/23 = assay: MIC protozoa, Trichomonas foetus (Table 2); assay type: cell-based; conditions: Tritrichomonas foetus, +10% serum (head); Kupferberg Trichomonas broth with 5% of horse serum; read-out: MIC
Experimental: as §1, §2
Inoculation with Trichomonas vaginalis and Trichomonas foetus, obtained from cultures transplanted every other day to make them lively, was effected in a ratio of 3.5% of the volume of medium used.
as §3

[5] = system: Trichophyton Mentagrophytes; assay: Topical activity upon dermatophytis from Trichophyton in cavies (Table 6); assay type: in vivo, Albino cavies; conditions: in vivo
Experimental: Albino cavies of 250-300 g are infected, after depilation and scarification of a circular area of dorsal skin upon which there are supplied 0.1 ml of a suspension of microconidia of Trichophyton Mentagrophytes from the Pasteur Institute collection, obtained from a culture of 15 days upon Saboureaud agar. 24 Hours after infection topical treatment is started and is continued for two weeks (once per day).
The compounds to be tested are dissolved or suspended at the desired concentration, in a water-alcohol mixture (75/25 v/v) containing 0.75% by weight of carboxymethyl-cellulose (CMC). […] Each single application is carried out using 0.25 ml of the suspension or solution obtained as described above.
Fourteen days after infection the lesions are assessed. Assessment is carried out by attributing index numbers depending upon the seriousness of the lesions formed, as follows:
The substances under examination were tested at concentrations of 5 and 2.5% by weight.

[6] = system: Streptococ. Henclyt. 0203; assay: M.I.C. in vitro, gram+ Streptococ. Henclyt. (Table 1); assay type: cell-based; conditions: read-out: M.I.C.
Experimental: as §1, §2, §4

CCCCCCCCCCCC[N+](C)(C)CCOC(=O)C12CC3CC(CC(C3)C1)C2 [Example 4]
MIC (Candida Albic. SKF 2270; +10% serum): 20 µg/mL
MIC (Candida Albic. SKF 2270; without serum): 0.2 µg/mL
activity on Candida albicans, times greater than that of cetyl pyridine chloride (Candida Albic. SKF 2270): about 25 times
activity on Candida albicans, times higher than that of cetyl pyridine chloride (Candida Albic. SKF 2270): 5-10 times
MIC (Proteus Vulc. ATCC 881; +10% serum): 100 µg/mL
MIC (Proteus Vulc. ATCC 881; without serum): 2 µg/mL
antibacterial activity (in words) [1]: powerful antibacterial activity at low concentrations
MIC (Esch. Coli. SKF 12140; +10% serum): 100 µg/mL
MIC (Esch. Coli. SKF 12140; without serum): 2 µg/mL
MIC (Pseudom.Aer. ATCC 1014; ATCC1014, +10% serum): 100 µg/mL
MIC (Pseudom.Aer. ATCC 1014; ATCC1014, without serum): 10 µg/mL
MIC (Diplococcus Pneum. ISM; +10% serum): 5 µg/mL
MIC (Diplococcus Pneum. ISM; without serum): 0.5 µg/mL
animals alive on the 15th day (Pseudomonas Aeruginosa; 0.25% by weight): 4
animals dead on the 15th day (Pseudomonas Aeruginosa; 0.25% by weight): 6
% survivors (Pseudomonas Aeruginosa; 0.25% by weight): 40%
animals alive on the 15th day (Pseudomonas Aeruginosa; 0.5% by weight): 6
animals dead on the 15th day (Pseudomonas Aeruginosa; 0.5% by weight): 4
% survivors (Pseudomonas Aeruginosa; 0.5% by weight): 60%
animals alive on the 15th day (Pseudomonas Aeruginosa; 1% by weight): 6
animals dead on the 15th day (Pseudomonas Aeruginosa; 1% by weight): 4
% survivors (Pseudomonas Aeruginosa; 1% by weight): 60%
animals alive on the 15th day (Pseudomonas Aeruginosa; 2% by weight): 7
animals dead on the 15th day (Pseudomonas Aeruginosa; 2% by weight): 3
% survivors (Pseudomonas Aeruginosa; 2% by weight): 70%
efficacy in vivo (in words) (Pseudomonas Aeruginosa): secure efficacy
sterilization time ([2]; 0.1 g/l): 60 min
sterilization time ([2]; 0.25 g/l): 60 min
sterilization time ([2]; 0.5 g/l): 15 min
sterilization time ([2]; 1 g/l): 5 min
MIC ([3]; +10% serum): 5 µg/mL
MIC ([3]; without serum): 0.1 µg/mL
MIC (Klens. Pneum. ISM; +10% serum): 100 µg/mL
MIC (Klens. Pneum. ISM; without serum): 2 µg/mL
sterilization time ([4]; 0.1 g/l): 30 min
sterilization time ([4]; 0.25 g/l): 10 min
sterilization time ([4]; 0.5 g/l): 5 min
sterilization time ([4]; 1 g/l): 1 min
MIC (Trich. Foetus ISM 66/23): 5 µg/mL
in vivo activity against Trichophyton Mentagrophytes (in words) [5]: excellent "in vivo" activity against Trichophyton Mentagrophytes
MIC ([6]; +10% serum): 0.3 µg/mL
MIC ([6]; without serum): < 0.1 µg/mL

CCCCCCCCCCCC[N+](C)(C)CCNC(=O)C12CC3CC(CC(C3)C1)C2 [Example 8]
MIC (Candida Albic. SKF 2270; +10% serum): 20 µg/mL
MIC (Candida Albic. SKF 2270; without serum): 0.2 µg/mL
activity on Candida albicans, times greater than that of cetyl pyridine chloride (Candida Albic. SKF 2270): about 25 times
activity on Candida albicans, times higher than that of cetyl pyridine chloride (Candida Albic. SKF 2270): 5-10 times
MIC (Proteus Vulc. ATCC 881; +10% serum): 100 µg/mL
MIC (Proteus Vulc. ATCC 881; without serum): 5 µg/mL
antibacterial activity (in words) [1]: powerful antibacterial activity at low concentrations
MIC (Esch. Coli. SKF 12140; +10% serum): 100 µg/mL
MIC (Esch. Coli. SKF 12140; without serum): 2 µg/mL
MIC (Pseudom.Aer. ATCC 1014; ATCC1014, +10% serum): 50 µg/mL
MIC (Pseudom.Aer. ATCC 1014; ATCC1014, without serum): 10 µg/mL
MIC (Diplococcus Pneum. ISM; +10% serum): 5 µg/mL
MIC (Diplococcus Pneum. ISM; without serum): 1 µg/mL
animals alive on the 15th day (Pseudomonas Aeruginosa; 0.25% by weight): 3
animals dead on the 15th day (Pseudomonas Aeruginosa; 0.25% by weight): 7
% survivors (Pseudomonas Aeruginosa; 0.25% by weight): 30%
animals alive on the 15th day (Pseudomonas Aeruginosa; 0.5% by weight): 6
animals dead on the 15th day (Pseudomonas Aeruginosa; 0.5% by weight): 5
% survivors (Pseudomonas Aeruginosa; 0.5% by weight): 60%
animals alive on the 15th day (Pseudomonas Aeruginosa; 1% by weight): 6
animals dead on the 15th day (Pseudomonas Aeruginosa; 1% by weight): 4
% survivors (Pseudomonas Aeruginosa; 1% by weight): 60%
animals alive on the 15th day (Pseudomonas Aeruginosa; 2% by weight): 7
animals dead on the 15th day (Pseudomonas Aeruginosa; 2% by weight): 3
% survivors (Pseudomonas Aeruginosa; 2% by weight): 70%
efficacy in vivo (in words) (Pseudomonas Aeruginosa): secure efficacy
sterilization time ([2]; 0.1 g/l): 60 min
sterilization time ([2]; 0.25 g/l): 60 min
sterilization time ([2]; 0.5 g/l): 10 min
sterilization time ([2]; 1 g/l): 5 min
MIC ([3]; +10% serum): 5 µg/mL
MIC ([3]; without serum): 0.1 µg/mL
MIC (Klens. Pneum. ISM; +10% serum): 50 µg/mL
MIC (Klens. Pneum. ISM; without serum): 5 µg/mL
sterilization time ([4]; 0.1 g/l): 60 min
sterilization time ([4]; 0.25 g/l): 15 min
sterilization time ([4]; 0.5 g/l): 2.5 min
sterilization time ([4]; 1 g/l): 2.5 min
MIC (Trich. Foetus ISM 66/23): 1 µg/mL
in vivo activity against Trichophyton Mentagrophytes (in words) [5]: excellent "in vivo" activity against Trichophyton Mentagrophytes
MIC ([6]; +10% serum): 1 µg/mL
MIC ([6]; without serum): < 0.1 µg/mL
